This note sets out measurements from patent US20080242688A1, “Method 741” (ASTRAZENECA AB, priority 2007, published 2008).

“And” between values parts separate entries of the source, which are not always exact repeats. Identical values can stand only once. Like-named read-outs stand apart in the source and are kept apart here.

Broadly, the EC50 is the concentration needed to bring the measured effect to its halfway point. A word on the AUC: it is concentration integrated over time. Low readings indicate less exposure, high ones more exposure. For orientation: Tmax means the time from dosing to the highest level.

Data set [1] concerns the target T1, rat recombinant α7 receptor (Rattus norvegicus, UniProt Q05941).
T1 construct: expressed in transfected cells; host or cells: Xenopus oocytes
The data set can be described thus: Whole cell current, oocytes. The class given is cell-based. Particulars: oocyte. The text has this: In membranes prepared either from cultured, human recombinant α7 receptor-expressing, human embryonic kidney cells α7-HEK) or from rat brain hippocampus, AZD0328 competed with binding of an iodinated form of the high-affinity, selective α7 receptor antagonist snake toxin, [^125I]-α-bungarotoxin (BTX) (Table 1). In Xenopus oocytes injected with human, recombinant α7 receptor mRNA, AZD0328 activates whole cell currents (Table 2). […] In acutely dissociated rat hippocampal interneurons, AZD0328 elicits rapidly activated, desensitizing whole-cell current (Table 1), consistent with the known properties of rat neuronal α7 receptors. […] AZD0328 modulates synaptic function, consistent with the well-known role of α7 receptors as heteroreceptor modulators of glutamatergic and GABAergic synaptic function.

A short description of data set [2]: Maximum tolerated dose and 7 days oral toxicity in the dog. The settings on record: both sexes, dog, in vivo, oral; dogs, single doses of 4.5 to 17 mg/kg. The data set is classed as in vivo. The procedure:
(§1) Single doses of 4.5 to 17 mg/kg were administrated to test AZD0328 to 2 male and 2 female dogs. […] Signs of nausea and at the higher doses vomiting was seen. In the 7 days repeated dose study 2 male and 2 female dogs were given 35 mg/kg per day. However, vomiting was the major clinical sign recorded during the study.

Data set [3] relates to dogs. The description is as above. The class given is in vivo. How it is done: as §1
Data set [4] can be described thus: Respiratory effects, whole body plethysmography. The data set is classed as in vivo. The settings on record: plasma; rat, oral; read-out: NOAEL on ventilatory function, total Cmax. The procedure: Effects of single oral doses of AZD0328 on mean, systolic and diastolic arterial blood pressures, heart rate, body temperature, locomotor activity and respiratory parameters were evaluated in rats by combining whole body plethysmography with telemetry (Table 3). […] The degree of hypertension, however, was similar at the 3 highest doses, which partly can be explained by the high individual variation in plasma exposure at each dose level. The effect on heart rate was, on the other hand, dose-related.
Effects of AZD0328 on respiratory function were evaluated in the combined cardiovascular/respiratory study in rats (Table 3). Respiratory rate, tidal volume, inspiratory and expiratory times, and peak inspiratory and expiratory flows were measured […].

In data set [5] the test system is putative dopaminergic neurons within the VTA. The data set can be described thus: Ventral Tegmental Area dopamine neuron firing. The class given is in vivo. The settings on record: rat, iv, 0.17-0.5 h.
Data set [6] has as its system ferrets. Nature of the data set: Emetic potential in ferrets. The class given is in vivo. Particulars: ferret. The procedure:
The emetic potential of AZD0328 was investigated in ferrets (n=6-8/dose) following a single oral dose of vehicle or AZD0328 (Table 3). Videotape recordings were used for observation of the animals up to 4 h after dose for quantitation and timing of emetic behaviours, characterised as retches (abdominal contractions), vomits and wet-dog shakes.

Data set [7] can be described thus: Single dose PK/TK, rabbit. The settings on record: New Zealand White, in vivo. An excerpt:
This section provides a summary of the pharmacokinetic and metabolism properties of AZD0328 derived from in vivo studies. […] The derived PK/TK parameters from these studies are presented in Table 4 for single dose studies (DMR4, 0619LR, 20030191PCR, DMO16, DMB10, DMW12, 50190, 0190DD and 03.330/1), and are presented in Table 5 multiple dose PK/TK studies (DMR4, 0612AR, DMB15, 50190, 0190DD and 0295AD).

The target in data set [8] is T2, human recombinant 5-HT3A/B receptors (Homo sapiens, UniProt O95264+P46098).
T2 construct: expressed in transfected cells
The data set can be described thus: Functional assays at recombinant human receptors. The data set is classed as biochemical. The settings on record: recombinant human receptors in vitro.

For data set [9], the system named is mice. Nature of the data set: Novel Object Recognition (NOR). The class given is in vivo, mouse. The settings on record: 0.00178 mg/kg sc. An excerpt:
We have now discovered that much lower doses of AZD0328 that provide much lower plasma concentrations, can improve performance of cognitive tasks in mice, rats, and monkeys. AZD0328 at low doses increased novel object recognition in mice. In this procedure, mice were habituated to a chamber in which they were then allowed to “sample” two objects before being removed from the chamber. After a delay during which one of the objects was replaced with a novel object, the mice were returned to the chamber for testing. If the delay was brief, mice spent more time exploring the novel object than the familiar object, which is thought to indicate that the mice “recognize” […], a measure of episodic memory.
AZD0328 increased novel object recognition in mice (Table 2). In this procedure, mice were habituated to a chamber in which they were then allowed to “sample” two objects before being removed from the chamber. After a delay during which one of the objects was replaced with a novel object, the mice were returned to the chamber for testing. If the delay was brief, mice spent more time exploring the novel object than the familiar object, which is thought to indicate that the mice “recognize” that the novel object is novel.

The test system of data set [10] is dog Purkinje fibre. Nature of the data set: Dog isolated cardiac Purkinje fibres, action potential. Particulars: 0.5 and 1 Hz. The procedure: Effects of AZD0328 on cardiac action potentials were assessed in 4 dog Purkinje fibre preparations. (Table 3). The following action potential parameters were measured at the stimulation frequencies 0.5 and 1 Hz: action potential duration at 50% (APD50), 70% (APD70) and 90% (APD90) of repolarisation; the maximum velocity of the action potential upstroke (Vmax); the action potential amplitude (APA) and the resting membrane potential (RMP). At both stimulation frequencies, AZD0328 caused a concentration-dependent prolongation of APD50, APD70 and APD90, with significant effects at 5.6 μM and above. There was also an indication of proarrhythmic potential of the compound.

Data set [11] has as its system guinea pigs. Nature of the data set: Cardiac repolarisation in the anesthetised guinea pig. The data set is classed as in vivo. How it is done: Effects of AZD0328 on ventricular repolarisation and intracardiac conduction were investigated in 6 anesthetised and ventilated guinea pigs (Table 3). For the electrophysiological characterisation, monophasic action potentia MAP duration at 90% repolarisation (MAPD90), ventricular conduction velocity (MAP rise time), and atrioventricular (AV) conduction time were recorded during cardiac pacing. AZD0328 had dose-dependent effects on the electrophysiological activities in the guinea pig heart. At the highest dose, resulting in a total plasma concentration of 8.5 μM, MAPD90 and AV conduction time were prolonged by 20% and 13%, respectively. It is concluded that AZD0328 delayed ventricular repolarisation in the anesthetised guinea pig by 10% at a total plasma concentration of 2.4 μM.

[12] abbreviates: female, sc, rabbit 3F, DMB10, single subcutaneous 2.16 mg/kg (10 μmol/kg).
Setting [13] is: female, sc, rabbit 3F, DMB10, single subcutaneous 6.49 mg/kg (30 μmol/kg).
[14] abbreviates: highest dose, total plasma concentration 8.5 μM.

T1 sequence (Q05941 23-502): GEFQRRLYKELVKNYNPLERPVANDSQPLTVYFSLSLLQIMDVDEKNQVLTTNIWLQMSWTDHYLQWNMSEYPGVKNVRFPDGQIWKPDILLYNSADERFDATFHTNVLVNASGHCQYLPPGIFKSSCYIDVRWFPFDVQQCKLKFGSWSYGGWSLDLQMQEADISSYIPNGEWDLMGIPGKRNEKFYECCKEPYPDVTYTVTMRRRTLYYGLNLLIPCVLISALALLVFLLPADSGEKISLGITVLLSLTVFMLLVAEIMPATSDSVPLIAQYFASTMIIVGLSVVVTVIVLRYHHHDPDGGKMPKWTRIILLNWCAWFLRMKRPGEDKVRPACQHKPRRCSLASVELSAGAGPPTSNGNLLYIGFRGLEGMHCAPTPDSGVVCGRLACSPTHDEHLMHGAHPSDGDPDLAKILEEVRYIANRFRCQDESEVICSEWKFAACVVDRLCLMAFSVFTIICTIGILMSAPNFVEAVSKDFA
T2 sequence (P46098 24-478): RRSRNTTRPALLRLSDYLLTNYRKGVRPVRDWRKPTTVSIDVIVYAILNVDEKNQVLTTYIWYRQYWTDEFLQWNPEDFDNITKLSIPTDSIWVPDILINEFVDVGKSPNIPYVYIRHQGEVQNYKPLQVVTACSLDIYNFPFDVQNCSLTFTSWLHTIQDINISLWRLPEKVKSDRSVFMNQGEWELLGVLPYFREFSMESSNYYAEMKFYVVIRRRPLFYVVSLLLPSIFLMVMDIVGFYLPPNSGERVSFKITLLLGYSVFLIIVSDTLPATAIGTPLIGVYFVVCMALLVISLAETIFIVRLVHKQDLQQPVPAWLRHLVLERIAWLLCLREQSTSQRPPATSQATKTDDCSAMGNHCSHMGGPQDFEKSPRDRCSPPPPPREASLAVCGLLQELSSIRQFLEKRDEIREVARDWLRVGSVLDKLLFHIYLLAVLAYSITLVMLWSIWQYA
T2 sequence (O95264 22-441): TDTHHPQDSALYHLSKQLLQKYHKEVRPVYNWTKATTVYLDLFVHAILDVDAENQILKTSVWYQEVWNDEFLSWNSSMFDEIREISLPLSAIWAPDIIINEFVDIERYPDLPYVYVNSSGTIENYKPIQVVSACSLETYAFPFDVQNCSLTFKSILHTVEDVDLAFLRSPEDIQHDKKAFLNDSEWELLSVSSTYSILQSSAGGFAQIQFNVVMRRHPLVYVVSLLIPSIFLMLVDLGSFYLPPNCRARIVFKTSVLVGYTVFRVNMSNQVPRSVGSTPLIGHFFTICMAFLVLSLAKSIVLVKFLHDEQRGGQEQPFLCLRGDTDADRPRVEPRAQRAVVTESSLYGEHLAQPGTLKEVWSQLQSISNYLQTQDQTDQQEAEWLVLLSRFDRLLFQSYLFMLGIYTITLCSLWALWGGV

For the compound `c1cnc2c(c1)C[C@@]1(CN3CCC1CC3)O2` [AZD0328, (R)-Spiro[1-azabicyclo[2.2.2]octane-3,2′(3′H)-furo[2,3-b]pyridine]], the concentration giving a half-maximal response (EC50) in data set [1] (rat recombinant α7) was determined as 1100 nM. The Emax in data set [1] (rat recombinant α7, 10 μM, read-out: Maximum response, whole cell current) was determined as 87%. Moreover, the Cmax was 2.8 to 14 µM in data set [2]; 31.2 µM in [4]; 589 ng/mL and 2.72 µM in data set [7] (setting [12]); 1750 ± 56 ng/mL in data set [7] (setting [13]). Moreover, the “dose with slight QT prolongation (ECG)” value in [3] is at least 8.6 mg/kg. In addition, in [5], the “Dose active: Ventral Tegmental Area dopamine neuron firing - increased” value came out at 0.00138 mg/kg. Besides, the “dose with statistically significant difference from vehicle for retches” value in data set [6] (oral) worked out at 5.6 mg/kg. The emetic responses result in data set [6] (oral gavage 5.6, 16.9 or 56.2 mg/kg) was “emetic responses were present at all doses”. The half-life is below 5 h in data set [7] (rabbit, read-out: elimination half-life); 2.71 ± 1.17 h in data set [7] (female, sc, rabbit 3F, DMB10, single subcutaneous 2.16 mg/kg (10 μmol/kg), read-out: T½ (converted)); 4.56 ± 1.36 h in data set [7] (female, sc, rabbit 3F, DMB10, single subcutaneous 6.49 mg/kg (30 μmol/kg), read-out: T½ (converted)). The AUC in data set [7] (setting [12]) is 1750 ng·h/mL and 8.1 µM·h; in data set [7] (setting [13]), 7340 ng·h/mL and 33.9 µM·h. Further, the values for the Tmax in data set [7] (setting [12]) and in data set [7] (setting [13]) were 0.5 to 1.12 h and 0.267 to 1.08 h, respectively. Further, the “functional potency at α7 versus 5-HT3A/B receptors” value in data set [8] was “equipotent”. The “time of administration prior to object sampling at which object recognition index was still significantly increased” value in data set [9] was at most 48 h. The “concentration with significant prolongation of APD50, APD70 and APD90” value in data set [10] is at least 5.6 µM. Further, the total plasma concentration in data set [11] (highest dose, iv cumulative bolus) was found to be 8.5 µM. Besides, in data set [11] (setting [14]), the “prolongation of AV conduction time” value is 13%. Besides, the “prolongation of MAPD90” value in data set [11] (setting [14]) was 20%. Besides, the “NOAEL, guinea pig MAP assay” value in data set [11] (in vivo) is 1 µM.
